According to US20020058077A1, “Cancer chemotherapeutical and chemopreventive agent” (priority 2000, published 2002):
*1 amine or outer side, *2 acyl side, *3 side chain or, on linkers, in order; H or OH if unused. Where a SMILES comes first, the peptide text is derived from it. Bridges are numbered along the chain shown (N, C = ends). Roman numbers before positions name the chains, in order. [ ]: non-standard residue; d: D form. Actinocin(9to1) = Cc1c2oc3c(C)ccc(C(=O)[*:1])c3nc-2c(C(=O)[*:2])c(N)c1=O; NMeV = CN[C@H](C(=O)O)C(C)C; Sar = CNCC(=O)O

Key:
[1] = tested on: COX-2; test: RT-PCR analysis of COX-2 mRNA in TNF-α treated CNE1 cells; conditions: Act D 5 μg/ml × 30 min; TNF-α 15 ng/ml × 6 h
Protocol: (§1) TNF-α (final concentration 15 ng/ml) was used as the positive stimulus to promote NF-κB activation in cultured cells.
RNA extraction was carried out using a total RNA extraction kit (TRIzol, Life Technologies). Briefly, cells were collected by scrapping after various treatments and washed with cold PBS once before they were lysed in the TRIzol reagent. […] Finally the RNA samples were dissolved in DEPC-H2O and quantified (1 A260=40 μg/ml). Five micrograms of total RNA from each sample were subjected to reverse transcription using Superscript II reverse transcriptase (Life Technologies) in a total volume of 50 μl. For PCR, all the amplification reactions were carried out in 20 μl which included 200 pmol of each primers, 200 μM of each dNTPs, and 0.5 units of DyNAzyme II. The PCR was performed for 30 cycles, using a program of 95° C. for 30 sec, 57° C. for 30 sec, and 72° C. for 30 sec, followed by a 10 min extension at 72° C., in a Biometra T-gradient Thermal Cycler. […] The PCR conditions were optimised to achieve exponential amplification in which the PCR product formation is proportional to the starting cDNA.

[2] = tested on: CNE1 cells; conditions: for apoptotic cell death in TNF-α treated cells after pretreatment: PDTC 25 μM, Act D 5 μg/ml, CHX 5 μg/ml or NS398 10 μM × 30 min
Protocol: as §1
Apoptosis was determined by the following assays: (i) cell morphological alterations examined under an inverted microscope, (ii) PARP cleavage determined by western blot, and (iii) TUNEL assay which was analysed using both flow cytometry and confocal microscope (Shen et al., 2000), in both attached and detached cells after various treatments.

[3] = tested on: NF-κB; test: NF-κB luciferase reporter gene assay in transfected CNE1 cells; assay type: cell-based, human; conditions: PDTC 25 μM, Act D 5 μg/ml or CHX 5 μg/ml × 30 min; TNF-α 15 ng/ml × 24 h; order PDTC <Act D <CHX
Protocol: The pNF-κB-luc vector and the negative control pTAL-luc vector were purchased as part of the Mercury Pathway Profiling Luciferase System from Clontech Laboratories. […] The transient transfection of the above plasmids into cultured CNE1 cells were performed using TransFast™ Transfection Reagent (Promega) according to the manufacturer's protocol. Briefly, when cells reached about 80% confluence in 24-well plates (approximately 10×10^4 cells per well in 0.5 ml culture medium), the growth medium from each well was removed by aspiration. […] After incubated for 1 h at 37° C., 300 μl of prewarmed complete medium was added into each well and incubated for 24 h. Transfected cells were then subjected to various treatments. The luciferase activity was measured in the cellular extracts using a luciferase assay kit (Promega). Following the treatment, the cell lysate was collected from each well after the addition of 1× cell culture lysis reagent (50 μl/well, Promega). The relative light units (RLU) were then determined in a luminometer (Lumi-one, Trans Orchid, Tampa, Fla.) for a total period of 15 sec after a 5 sec delay time.

[4] = tested on: COX-2; test: COX-2 protein level in TNF-α treated CNE1 cells by western blot; conditions: CHX 5 μg/ml × 30 min; TNF-α 15 ng/ml × 24 h
Protocol: as §1
Various cell extracts (cytosolic, nuclear or whole cell) were prepared as described earlier. Equal amounts (30 μg) of protein were separated on SDS-polyacrylamide gel in the Mini-PROTEAN II system (Bio-Rad). After electrophoresis, the protein was transferred onto a Hybond-C nitrocellulose membrane (Amersham) at 4° C. using the Mini Trans-Blot Module (Bio-Rad). The membrane was blocked overnight with 5% nonfat milk in TBST (10 mM Tris-HCl, pH 7.5, 100 mM NaCl, 0.1% Tween 20), and then incubated with various primary antibodies for 2 h at room temperature. After 5 washes with TBST, the membrane was exposed to respective secondary antibodies for 1 h. The blots were detected using the enhanced chemiluminescence method (Pierce).

[5] = tested on: PGE2 production; test: PGE2 level released from CNE1 cells by enzyme immunoassay (EIA); assay type: cell-based, human
Protocol: The PGE2 level in the cell culture medium after various treatments was determined using an EIA kit (Cayman) according to protocol from the manufacturer. Each sample was assayed at two dilutions and each dilution in triplets. The results were presented as the fold of increase comparing to that of the control group.

[6] = Act D 5 μg/ml × 30 min pretreatment, then TNF-α 15 ng/ml × 24 h

Cc1c2oc3c(C)ccc(C(=O)N[C@@H]4C(=O)N[C@H](C(C)C)C(=O)N5CCC[C@H]5C(=O)N(C)CC(=O)N(C)[C@@H](C(C)C)C(=O)O[C@@H]4C)c3nc-2c(C(=O)N[C@@H]2C(=O)N[C@H](C(C)C)C(=O)N3CCC[C@H]3C(=O)N(C)CC(=O)N(C)[C@@H](C(C)C)C(=O)O[C@@H]2C)c(N)c1=O [Act D, actinomycin D] (I: T[dV]P[Sar][NMeV] / II: T[dV]P[Sar][NMeV]; ester I:1-I:C, II:1-II:C; linker I:N-II:N via Actinocin(9to1))
COX-2 mRNA level [1]: markedly reduced
PARP cleavage [2, 6]: complete cleavage
detached apoptotic cells [2, 6]: ~100%
apoptotic cell death in TNF-α treated cells after pretreatment ([2]; then TNF-α 15 ng/ml × 24 h): severe apoptosis

C[C@@H]1C[C@@H]([C@H](O)CC2CC(=O)NC(=O)C2)C(=O)[C@@H](C)C1 [CHX, cycloheximide]
NF-κB dependent transcription (luciferase) [3]: capable of inhibiting
COX-2 protein level [4]: Significant reduction
apoptotic cell death in TNF-α treated cells after pretreatment ([2]; then TNF-α 15 ng/ml × 24 h): severe apoptosis

CS(=O)(=O)Nc1ccc([N+](=O)[O-])cc1OC1CCCCC1 [NS398]
PGE2 production ([5]; NS398 10 μM × 30 min, TNF-α 15 ng/ml × 24 h): completely abolished
potency for the inhibition of PGE2 production compared with parthenolide ([5]; TNF-α treated CNE1 cells): higher potency
apoptotic cell death in TNF-α treated cells after pretreatment ([2]; then TNF-α 15 ng/ml × 24 h): significantly enhanced
apoptosis induction compared with parthenolide ([2]; TNF-α treated CNE1 cells): less effective
